Earlier results in US20100190739A1, “Rapidly Dissolving Vitamin Formulation and Methods of Using the Same” (FLEMING AND COMPANY, PHARMACEUTICALS, priority 2008, published 2010).

What was measured:
[1] = Institute of Medicine
[2] = not given; remark: listed apart in the source

Compound: [Se] [Selenium, selenium]
- Tolerable upper limit [1]: 0.4 mg/day

Compound: [Cr] [Chromium, chromium]
- Doses that can cause adverse reactions (some evidence): above 250 μg

Compound: Cc1ncc(C[n+]2csc(CCO)c2C)c(N)n1 [Example B1, thiamine]
- Dose with no evidence of oral toxicity (doses as high as, taken for extended periods of time): 200 mg

Compound: Cc1ncc(CO)c(CO)c1O [Example B6, pyridoxine]
- Tolerable upper limit [1]: 100 mg/day
- Dose showing potential damage to sensory nerves (long term study): 200 mg/day

Compound: [Mn+2] [Manganese, manganese]
- Tolerable upper limit [1]: 11 mg/day
- Fraction of dietary intake absorbed [2]: 3-5%

Compound: [Zn] [Zinc, zinc]
- Tolerable upper limit [1]: 40 mg/day
- Doses at which acute toxicity can occur (as low as) (in vivo): ≥ 30 mg/day
- Doses at which acute toxicity is more common (in vivo): exceeding 100 mg/day

Compound: cobalamin [Example B12]
- Level at which toxicity has not been demonstrated (in vivo): 10,000 × the recommended daily allowance (RDA)

Compound: O=C(O)c1cccnc1 [niacin]
- Tolerable upper limit [1]: 35 mg/day

Compound: [Mo] [Molybdenum, molybdenum]
- Intake causing significant losses of copper (in vivo): above 500 μg/day
